Test results from patent publication US20240246964A1 (Arbutus Biopharma Corporation, priority 2021, published 2024).

Tests used:
[1] = biological target: PD-L1 His protein / PD-1 Fc protein (Homo sapiens (Human), UniProt Q9NZQ7); experiment: HTRF Assay (PD-1/PD-L1 interaction); format: binding; conditions: PD-L1 His 6 nM, PD-1 Fc 6 nM
human PD-L1 = human PD-L1 (Homo sapiens (Human), UniProt Q9NZQ7); experiment: T cell activation luciferase reporter cell culture system (T Cell Activation Assay); format: cell-based; conditions: luciferase reporter assay; PD-L1 aAPC/CHO-K1 cells with PD-1 effector Jurkat T cells
Sequence of human PD-L1 (Q9NZQ7 19-290): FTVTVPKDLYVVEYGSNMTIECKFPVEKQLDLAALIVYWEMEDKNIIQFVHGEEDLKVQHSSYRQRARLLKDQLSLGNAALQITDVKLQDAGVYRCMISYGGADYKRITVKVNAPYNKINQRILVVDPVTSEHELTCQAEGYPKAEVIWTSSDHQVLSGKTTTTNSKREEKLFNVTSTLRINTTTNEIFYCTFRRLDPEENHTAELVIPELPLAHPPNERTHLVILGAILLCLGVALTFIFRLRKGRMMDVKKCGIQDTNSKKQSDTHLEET

Sequence of PD-L1 His protein / PD-1 Fc protein (Q9NZQ7 19-238): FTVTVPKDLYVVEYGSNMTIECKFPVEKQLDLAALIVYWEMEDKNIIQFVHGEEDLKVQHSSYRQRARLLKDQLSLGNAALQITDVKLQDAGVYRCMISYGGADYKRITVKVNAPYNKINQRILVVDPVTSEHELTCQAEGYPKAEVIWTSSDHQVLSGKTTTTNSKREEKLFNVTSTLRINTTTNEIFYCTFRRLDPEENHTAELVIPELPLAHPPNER

| SMILES | IC50 [1] [nM] | EC50 (human PD-L1) [nM] |
| --- | --- | --- |
| COc1nc(-c2cccc(-c3ccnc(-c4ccc5c(CNC[C@H](C)OC)cn(C)c5c4)c3Cl)c2Cl)ccc1CNC[C@@H]1CCC(=O)N1 [Compound 40, (S)-5-((((6-(2-chloro-3-(3-chloro-2-(3-((((S)-2-methoxypropyl)amino)methyl)-1-methyl-1H-indol-6-yl)pyridin-4-yl)phenyl)-2-methoxypyridin-3-yl)methyl)amino)methyl)pyrrolidin-2-one] | 10.3 | 4150 |
| COc1nc(-c2cccc(-c3ccnc(-c4ccc5c(CNC[C@@H]6CCCO6)cn(C)c5c4)c3Cl)c2Cl)ccc1CNC[C@@H]1CCC(=O)N1 [Compound 41, (S)-5-((((6-(2-chloro-3-(3-chloro-2-(1-methyl-3-(((((S)-tetrahydrofuran-2-yl)methyl)amino)methyl)-1H-indol-6-yl)pyridin-4-yl)phenyl)-2-methoxypyridin-3-yl)methyl)amino)methyl)pyrrolidin-2-one] | 33.9 | 164 |
| COc1nc(-c2cccc(-c3ccnc(-c4ccc5c(CNC6CCOCC6)cn(C)c5c4)c3Cl)c2Cl)ccc1CNC[C@@H]1CCC(=O)N1 [Compound 42, (S)-5-((((6-(2-chloro-3-(3-chloro-2-(1-methyl-3-(((tetrahydro-2H-pyran-4-yl)amino)methyl)-1H-indol-6-yl)pyridin-4-yl)phenyl)-2-methoxypyridin-3-yl)methyl)amino)methyl)pyrrolidin-2-one] | 0.1 | 88.6 |
| COc1nc(-c2cccc(-c3ccnc(-c4ccc5c(CNC6CCS(=O)(=O)CC6)cn(C)c5c4)c3Cl)c2Cl)ccc1CNC[C@@H]1CCC(=O)N1 [Compound 43, (S)-5-((((6-(2-chloro-3-(3-chloro-2-(3-(((1,1-dioxidotetrahydro-2H-thiopyran-4-yl)amino)methyl)-1-methyl-1H-indol-6-yl)pyridin-4-yl)phenyl)-2-methoxypyridin-3-yl)methyl)amino)methyl)pyrrolidin-2-one] | 0.2 | 62.5 |
| COc1nc(-c2cccc(-c3ccnc(-c4cc5c(=O)n(C)c(CN6CC7(CC(O)C7)C6)nn5c4)c3Cl)c2Cl)ccc1CNC[C@@H]1CCC(=O)N1 [Compound 48, (S)-6-(3-chloro-4-(2-chloro-3-(6-methoxy-5-((((5-oxopyrrolidin-2-yl)methyl)amino)methyl)pyridin-2-yl)phenyl)pyridin-2-yl)-2-((6-hydroxy-2-azaspiro[3.3]heptan-2-yl)methyl)-3-methylpyrrolo[2,1-f][1,2,4]triazin-4(3H)-one] | 0.04 | 18.7 |
| COc1nc(-c2cccc(-c3ccnc(-c4cnc5cc(CNC[C@@H]6CCC(=O)N6)ccc5c4)c3Cl)c2Cl)ccc1CNC[C@@H]1CCC(=O)N1 [Compound 52, (S)-5-((((6-(2-chloro-3-(3-chloro-2-(7-(((((S)-5-oxopyrrolidin-2-yl)methyl)amino)methyl)quinolin-3-yl)pyridin-4-yl)phenyl)-2-methoxypyridin-3-yl)methyl)amino)methyl)pyrrolidin-2-one] | 0.2 | 127 |
| COc1nc(-c2cccc(-c3ccnc(-c4ccc5c(CNC6CN(C(C)=O)C6)cn(C)c5c4)c3Cl)c2Cl)ccc1CNC[C@@H]1CCC(=O)N1 [Compound 55, (S)-5-((((6-(3-(2-(3-(((1-acetylazetidin-3-yl)amino)methyl)-1-methyl-1H-indol-6-yl)-3-chloropyridin-4-yl)-2-chlorophenyl)-2-methoxypyridin-3-yl)methyl)amino)methyl)pyrrolidin-2-one] | 4.9 | 127 |
| COc1nc(-c2cccc(-c3ccnc(-c4ccc5c(CN(C)C6CCN(C(C)=O)CC6)cn(C)c5c4)c3Cl)c2Cl)ccc1CNC[C@@H]1CCC(=O)N1 [Compound 56, (S)-5-((((6-(3-(2-(3-(((1-acetylpiperidin-4-yl)(methyl)amino)methyl)-1-methyl-1H-indol-6-yl)-3-chloropyridin-4-yl)-2-chlorophenyl)-2-methoxypyridin-3-yl)methyl)amino)methyl)pyrrolidin-2-one] | 4 | 36.8 |
| COc1nc(-c2cccc(-c3ccnc(-c4ccc5c(c4)CN(CCNC[C@@H]4CCC(=O)N4)C5=O)c3Cl)c2Cl)ccc1CNC[C@@H]1CCC(=O)N1 [Compound 66, 5-(3-chloro-4-(2-chloro-3-(6-methoxy-5-(((((S)-5-oxopyrrolidin-2-yl)methyl)amino)methyl)pyridin-2-yl)phenyl)pyridin-2-yl)-2-(2-((((S)-5-oxopyrrolidin-2-yl)methyl)amino)ethyl)isoindolin-1-one] | 0.6 | 158 |
| COc1nc(-c2cccc(-c3ccnc(-c4ccc5c(CNC6CCC(F)(F)CC6)cn(C)c5c4)c3Cl)c2Cl)ccc1CNC[C@@H]1CCC(=O)N1 [Compound 73, (S)-5-((((6-(2-chloro-3-(3-chloro-2-(3-(((4,4-difluorocyclohexyl)amino)methyl)-1-methyl-1H-indol-6-yl)pyridin-4-yl)phenyl)-2-methoxypyridin-3-yl)methyl)amino)methyl)pyrrolidin-2-one] | 0.9 | 184 |
| COc1nc(-c2cccc(-c3ccnc(-c4cc5c(=O)n(C)c(CN[C@H]6C[C@](C)(O)C6)nn5c4)c3Cl)c2Cl)cc(Cl)c1CNC[C@@H]1CCC(=O)N1 [Compound 87, 6-(3-chloro-4-(2-chloro-3-(4-chloro-6-methoxy-5-(((((S)-5-oxopyrrolidin-2-yl)methyl)amino)methyl)pyridin-2-yl)phenyl)pyridin-2-yl)-2-((((1r,3r)-3-hydroxy-3-methylcyclobutyl)amino)methyl)-3-methylpyrrolo[2,1-f][1,2,4]triazin-4(3H)-one] | 3 | 312 |
| COc1nc(-c2cccc(-c3ccnc(-c4cc5c(=O)n(C)c(CNC[C@H](C)O)nn5c4)c3Cl)c2Cl)ccc1CNC[C@@H]1CCC(=O)N1 [Compound 91, 6-(3-chloro-4-(2-chloro-3-(6-methoxy-5-(((((S)-5-oxopyrrolidin-2-yl)methyl)amino)methyl)pyridin-2-yl)phenyl)pyridin-2-yl)-2-((((S)-2-hydroxypropyl)amino)methyl)-3-methylpyrrolo[2,1-f][1,2,4]triazin-4(3H)-one] | 4.4 | 221 |
| CNCc1cn(C)c2nc(-c3cccc(-c4ccnc(-c5ccc(CNC[C@@H]6CCC(=O)N6)c(OC)c5)c4Cl)c3Cl)ccc12 [Compound 94, (S)-5-(((4-(3-chloro-4-(2-chloro-3-(1-methyl-3-((methylamino)methyl)-1H-pyrrolo[2,3-b]pyridin-6-yl)phenyl)pyridin-2-yl)-2-methoxybenzyl)amino)methyl)pyrrolidin-2-one] | 0.5 | 47.5 |
| COc1cc(-c2nccc(-c3cccc(-c4ccc5c(CNC6CN(C(C)=O)C6)cn(C)c5n4)c3Cl)c2Cl)ccc1CNC[C@@H]1CCC(=O)N1 [Compound 95, (S)-5-(((4-(4-(3-(3-(((1-acetylazetidin-3-yl)amino)methyl)-1-methyl-1H-pyrrolo[2,3-b]pyridin-6-yl)-2-chlorophenyl)-3-chloropyridin-2-yl)-2-methoxybenzyl)amino)methyl)pyrrolidin-2-one] | 0.6 | 104 |
| COc1cc(-c2nccc(-c3cccc(-c4ccc5c(CNC6CCC(F)(F)CC6)cn(C)c5n4)c3Cl)c2Cl)ccc1CNC[C@@H]1CCC(=O)N1 [Compound 96, (S)-5-(((4-(3-chloro-4-(2-chloro-3-(3-(((4,4-difluorocyclohexyl)amino)methyl)-1-methyl-1H-pyrrolo[2,3-b]pyridin-6-yl)phenyl)pyridin-2-yl)-2-methoxybenzyl)amino)methyl)pyrrolidin-2-one] | 0.6 | 230 |
| COc1cc(-c2nccc(-c3cccc(-c4ccc5c(CNCCO)cn(C)c5n4)c3Cl)c2Cl)ccc1CNC[C@@H]1CCC(=O)N1 [Compound 97, (S)-5-(((4-(3-chloro-4-(2-chloro-3-(3-(((2-hydroxyethyl)amino)methyl)-1-methyl-1H-pyrrolo[2,3-b]pyridin-6-yl)phenyl)pyridin-2-yl)-2-methoxybenzyl)amino)methyl)pyrrolidin-2-one] | 0.5 | 28.3 |
| COc1cc(-c2nccc(-c3cccc(-c4ccc5c(CNC[C@H](C)O)cn(C)c5n4)c3Cl)c2Cl)ccc1CNC[C@@H]1CCC(=O)N1 [Compound 98, (S)-5-(((4-(3-chloro-4-(2-chloro-3-(3-((((S)-2-hydroxypropyl)amino)methyl)-1-methyl-1H-pyrrolo[2,3-b]pyridin-6-yl)phenyl)pyridin-2-yl)-2-methoxybenzyl)amino)methyl)pyrrolidin-2-one] | 0.7 | 30.5 |
| COc1cc(-c2nccc(-c3cccc(-c4ccc5c(CNCC(C)(C)O)cn(C)c5n4)c3Cl)c2Cl)ccc1CNC[C@@H]1CCC(=O)N1 [Compound 99, (S)-5-(((4-(3-chloro-4-(2-chloro-3-(3-(((2-hydroxy-2-methylpropyl)amino)methyl)-1-methyl-1H-pyrrolo[2,3-b]pyridin-6-yl)phenyl)pyridin-2-yl)-2-methoxybenzyl)amino)methyl)pyrrolidin-2-one] | 0.7 | 47.8 |
| COCCNCc1cn(C)c2nc(-c3cccc(-c4ccnc(-c5ccc(CNC[C@@H]6CCC(=O)N6)c(OC)c5)c4Cl)c3Cl)ccc12 [Compound 100, (S)-5-(((4-(3-chloro-4-(2-chloro-3-(3-(((2-methoxyethyl)amino)methyl)-1-methyl-1H-pyrrolo[2,3-b]pyridin-6-yl)phenyl)pyridin-2-yl)-2-methoxybenzyl)amino)methyl)pyrrolidin-2-one] | 0.9 | 59 |
| COc1cc(-c2nccc(-c3cccc(-c4ccc5c(CN(C)CCO)cn(C)c5n4)c3Cl)c2Cl)ccc1CNC[C@@H]1CCC(=O)N1 [Compound 101, (S)-5-(((4-(3-chloro-4-(2-chloro-3-(3-(((2-hydroxyethyl)(methyl)amino)methyl)-1-methyl-1H-pyrrolo[2,3-b]pyridin-6-yl)phenyl)pyridin-2-yl)-2-methoxybenzyl)amino)methyl)pyrrolidin-2-one] | 0.5 | 31 |
